Experiments:
TNBS-induced colitis = TNBS-induced colitis in mice (disease activity score, MPO activity); type: in vivo; details: oral 100 mg/kg every 12 h for 5 days
Experimental: A standard experimental animal model of colitis induced by intracolonic administration of 2,4,6-trinitrobenzene sulfonic acid (TNBS) to mice is used in the following example. A detailed description of this model has been published (Santucci et al. (2003) Gastroenterology 124:1381-94) and is incorporated herein by reference. Briefly, 6-8 week old Balb/c mice were given TNBS intracolonically at a dose of 1.5 mg in 0.1 mL of 30% ethanol. The mice were randomized to the various treatment groups (n=6 per group). Beginning one hour later and continuing every 12 h for 5 days, the mice were treated orally with vehicle (1% carboxymethylcellulose (CMC)), 5-ASA (mesalamine) alone (100 mg/kg), 4-hydroxythiobenzamide (referred to in the Figures as 4-HTB) (100 mg/kg), 5-amino-2-(4-thiocarbamoyl-phenoxycarbonyloxy)-benzoic acid (100 mg/kg) (referred to hereinafter as Compound XXVII) and equimolar doses of mesalamine (50 mg/kg) and (4-HTB) (50 mg/kg). *p<0.05 versus the vehicle-treated group. Each group consisted of at least 5 rats.
The mice were evaluated (blindly) on the final day of the study for the presence of diarrhea and fecal occult blood, and their body weights were measured. […] After sacrifice, a sample of the colon was excised for measurement of myeloperoxidase (MPO) activity, as a marker of granulocyte infiltration. All results were compared to those obtained with healthy mice as well.

[1] = test system: leukocyte adherence to the vascular endothelium; assay: Aspirin-induced leukocyte adherence, intravital microscopy of mesenteric venules; type: in vivo, rat; details: FIG. 5
Experimental: Leukocyte adherence was studied using intravital microscopy, as described in detail previously (Wallace et al., (1993) Am. J. Physiol. 265: 993-998, incorporated hereto by reference). Rats were anesthetized with pentobarbital sodium (60 mg/kg i.p.) and cautery incisions were made along the abdominal region. A tracheotomy was performed to facilitate breathing. The rats were placed in a supine position, and a segment of the mesentery was exteriorized through the abdominal incision. The mesentery was carefully placed over an optically clear viewing pedestal that allowed for trans-illumination of a 2-cm^2 segment of tissue. All exposed tissue was covered with saline-soaked gauze to minimize dehydration. […] A video camera mounted on the microscope (Panasonic™ digital 5000) projected the image onto a monitor, and the images were recorded for playback analysis using a videocassette recorder. Images of the mesenteric microcirculation were recorded 5 minutes prior to aspirin administration (baseline), at the time of aspirin administration (time 0-5) and every 15 minutes for 60 minutes. Leukocyte adherence was blindly quantified from videotaped images of the vessels made over 5-min periods as the number of leukocytes that remained stationary along the vessel wall for 30 s or more (expressed per 100 μm venule length). […]

COX-2 = target: T1, COX-2 (Rattus norvegicus, UniProt P35355); assay: Rat airpouch assay, exudate PGE2 after zymosan; type: in vivo; details: oral 30 min before; diclofenac 3 mg/kg, Compound XVII 4.1 mg/kg; FIG. 12
T1 construct: from tissue; host or cells: rat subcutaneous airpouch exudate, in vivo, zymosan-induced
T1 sequence (P35355 18-604): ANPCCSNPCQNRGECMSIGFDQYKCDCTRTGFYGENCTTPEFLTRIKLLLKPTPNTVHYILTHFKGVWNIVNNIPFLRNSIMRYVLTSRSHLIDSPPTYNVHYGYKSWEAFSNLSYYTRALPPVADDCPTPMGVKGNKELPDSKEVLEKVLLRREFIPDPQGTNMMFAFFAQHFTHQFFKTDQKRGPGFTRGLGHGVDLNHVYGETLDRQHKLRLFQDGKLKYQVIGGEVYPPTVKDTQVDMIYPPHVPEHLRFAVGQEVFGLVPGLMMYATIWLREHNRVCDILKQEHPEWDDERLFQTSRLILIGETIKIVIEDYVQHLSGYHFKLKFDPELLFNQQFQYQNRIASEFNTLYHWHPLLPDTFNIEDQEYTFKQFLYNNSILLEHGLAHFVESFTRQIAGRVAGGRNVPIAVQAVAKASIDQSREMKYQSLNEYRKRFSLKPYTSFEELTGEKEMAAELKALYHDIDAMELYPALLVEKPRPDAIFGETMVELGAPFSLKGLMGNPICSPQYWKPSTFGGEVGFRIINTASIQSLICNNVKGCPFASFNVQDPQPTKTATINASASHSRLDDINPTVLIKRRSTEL
Experimental: Briefly, a subcutaneous “pouch” is created by repeated injections of air over several days. Once established, inflammation in the pouch can be induced by injection of 1 mL of 1% zymosan. […] Another group of 5 rats was treated with the vehicle, but received an injection of 0.9% sterile saline into the pouch rather than zymosan.
Each group consisted of 5 rats.

Row | Compound | Disease Activity Score (TNBS-induced colitis; FIG. 1) | myeloperoxidase (MPO) activity (granulocyte infiltration) (TNBS-induced colitis; colon sample, FIG. 2) | leukocyte adherence at 60-65 minutes ([1]; 100 mg/kg intragastrically 60 min prior to aspirin) | leukocyte adherence at 60-65 minutes after glibenclamide pretreatment ([1]; glibenclamide 10 mg/kg i.p. 30 min prior, aspirin) | exudate PGE2 in the pouch (COX-2 activity) (COX-2)
1 | 5-amino-2-(4-thiocarbamoyl-phenoxycarbonyloxy)-benzoic acid [Compound XXVII] | almost three times as effective | significantly reduced inflammation | suppress aspirin-induced leukocyte adherence | reverse this inhibitor effect on leukocyte adherence | 
2 | NC(=S)c1ccc(O)cc1 [4-hydroxythiobenzamide] |  |  |  |  | did not significantly affect COX-2 activity

— patent US8314140B2, “4-hydroxythiobenzamide derivatives of drugs” (Antibe Therapeutics Inc., priority 2006, dated 2012)
